The compounds below were run on CJLP17 strain (assay: Antibiotic susceptibility test with antibiotic discs). Settings: antibiotic disc on CJLP17 lawn, Mueller Hinton II medium, 37° C., 24 hours.
Format: cell-based, Lactobacillus plantarum
Procedure: The CJLP17 strain was inoculated into a liquid MRS medium and subjected to a static culture at 37° C. for 24 hours. The thus-cultured bacteria were soaked in sterilized cotton swabs and smeared on a solid Mueller Hinton II medium (Difco), and then antibiotic discs were placed on the medium and incubated at 37° C. for 24 hours. Ampicillin, clindamycin, gentamicin, kanamycin, erythromycin, ampicillin/sulbactam, chloramphenicol, and streptomycin discs (Oxoid, UK) were used as antibiotic discs for the antibiotic test.

Compound	Radius of Growth Inhibition Area Centered Around Antibiotics [mm]
[H]/N=C(/N)N[C@H]1[C@H](O)[C@@H](O)[C@H](O[C@@H]2O[C@@H](C)[C@](O)(C=O)[C@H]2O[C@@H]2O[C@@H](CO)[C@H](O)[C@@H](O)[C@@H]2NC)[C@@H](N/C(N)=N\[H])[C@@H]1O [DA2 (Streptomycin), Streptomycin]	4.5
CC[C@H]1OC(=O)[C@H](C)[C@@H](O[C@H]2C[C@@](C)(OC)[C@@H](O)[C@H](C)O2)[C@H](C)[C@@H](O[C@@H]2O[C@H](C)C[C@H](N(C)C)[C@H]2O)[C@](C)(O)C[C@@H](C)C(=O)[C@H](C)[C@@H](O)[C@]1(C)O [E15 (Erythromycin), Erythromycin]	12
Gentamicin [CN120 (Gentamicin)]	5
Ampicillin/Sulbactam [SAM20 (Ampicillin/Sulbactam)]	7
CC1(C)S[C@@H]2[C@H](NC(=O)[C@H](N)c3ccccc3)C(=O)N2[C@H]1C(=O)O [Amp10 (Ampicillin), Ampicillin]	7.5
NC[C@H]1O[C@H](O[C@H]2[C@H](O)[C@@H](O[C@H]3O[C@H](CO)[C@@H](O)[C@H](N)[C@H]3O)[C@H](N)C[C@@H]2N)[C@H](O)[C@@H](O)[C@@H]1O [K30 (Kanamycin), Kanamycin]	1.5
O=C(N[C@H](CO)[C@H](O)c1ccc([N+](=O)[O-])cc1)C(Cl)Cl [S10 (Chloramphenicol), Chloramphenicol]	3.5
CCC[C@@H]1C[C@@H](C(=O)N[C@@H]([C@H]2O[C@H](SC)[C@H](O)[C@@H](O)[C@H]2O)[C@H](C)Cl)N(C)C1 [C30 (Clindamycin), Clindamycin]	7
